Read-outs that look alike come from different tables or passages of the source.
What was measured:
HeLa cell line = assay: Proliferation assay (HeLa cell line), crystal violet staining; type: cell-based; conditions: Homo sapiens, 96 h, read-out: Biological Assay 2: Proliferation assay (HeLa cell line) median IC50
Method: Cultivated tumor cells (cells were ordered from ATCC, except HeLa-MaTu and HeLa-MaTu-ADR, which were ordered from EPO-GmbH, Berlin) were plated at a density of 1000 to 5000 cells/well, depending on the growth rate of the respective cell line, in a 96-well multititer plate in 200 μL of their respective growth medium supplemented 10% fetal calf serum. After 24 hours, the cells of one plate (zero-point plate) were stained with crystal violet (see below), while the medium of the other plates was replaced by fresh culture medium (200 μL), to which the test substances were added in various concentrations (0 μM, as well as in the range of 0.001-10 μM; the final concentration of the solvent dimethyl sulfoxide was 0.5%). The cells were incubated for 4 days in the presence of test substances. Cell proliferation was determined by staining the cells with crystal violet: the cells were fixed by adding 20 μl/measuring point of an 11% glutaric aldehyde solution for 15 minutes at room temperature. After three washing cycles of the fixed cells with water, the plates were dried at room temperature. The cells were stained by adding 100 μl/measuring point of a 0.1% crystal violet solution (pH 3.0). After three washing cycles of the stained cells with water, the plates were dried at room temperature. The dye was dissolved by adding 100 μl/measuring point of a 10% acetic acid solution. Absorption was determined by photometry at a wavelength of 595 nm. The change of cell number, in percent, was calculated by normalization of the measured values to the absorption values of the zero-point plate (=0%) and the absorption of the untreated (0 μm) cells (=100%). The IC50 values were determined by means of a 4 parameter fit using the company's own software.

[1] = biological target: T1, catalytic domain of human Bub1 (amino acids 704-1085) (Homo sapiens, UniProt O43683); assay: Bub1 kinase assay (TR-FRET); type: biochemical
T1 construct: catalytic domain of human Bub1 (amino acids 704-1085); His6 (N); made in house; host or cells: Hi5 insect cells
T1 sequence (O43683 704-1085): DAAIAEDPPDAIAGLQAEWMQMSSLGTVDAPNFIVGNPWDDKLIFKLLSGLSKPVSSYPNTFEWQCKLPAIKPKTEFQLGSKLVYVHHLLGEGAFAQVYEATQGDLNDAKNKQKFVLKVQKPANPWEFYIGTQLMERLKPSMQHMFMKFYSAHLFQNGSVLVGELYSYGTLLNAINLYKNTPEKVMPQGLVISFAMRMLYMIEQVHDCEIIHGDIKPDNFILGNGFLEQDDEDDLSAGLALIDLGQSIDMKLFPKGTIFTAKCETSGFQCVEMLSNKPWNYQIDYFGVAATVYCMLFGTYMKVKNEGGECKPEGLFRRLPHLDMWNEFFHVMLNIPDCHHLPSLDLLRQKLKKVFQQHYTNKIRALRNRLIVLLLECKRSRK
Method: To this end, 100-fold concentrated compound solutions (in DMSO) were previously prepared by serial dilution (1:3.4) of 2 mM stocks in a clear low volume 384-well source microtiter plate (Greiner Bio-One, Frickenhausen, Germany), from which 50 nl of compounds were transferred into a black low volume test microtiter plate from the same supplier. […] The resulting mixture (5 μL final volume) was incubated at 22° C. during 60 min., and the reaction was stopped by the addition of 5 μL of an aqueous EDTA-solution (50 mM EDTA, in 100 mM HEPES pH 7.5 and 0.2% (w/v) bovine serum albumin) which also contained the TR-FRET detection reagents (0.2 μM streptavidin-XL665 [Cisbio Bioassays, Codolet, France] and 1 nM anti-phosho-Serine antibody [Merck Millipore, cat. #35-001] and 0.4 nM LANCE EU-W1024 labeled anti-mouse IgG antibody [Perkin-Elmer, product no. AD0077, alternatively a Terbium-cryptate-labeled anti-mouse IgG antibody from Cisbio Bioassays can be used]). The stopped reaction mixture was further incubated 1 h at 22° C. in order to allow the formation of complexes between peptides and detection reagents. Subsequently, the amount of product was evaluated by measurement of the resonance energy transfer from the Eu-chelate-antibody complex recognizing the Phosphoserine residue to the streptavidin-XL665 bound to the biotin moiety of the peptide. […] IC50 values were calculated by fitting the normalized inhibition data to a 4-parameter logistic equation (Minimum, Maximum, IC50, Hill; Y=Max+(Min−Max)/(1+(X/IC50)Hill)).

[2] = TR-FRET, recombinant catalytic domain of human Bub1, ATP 10 μM, peptide substrate 1 μM, median value, read-out: Biological Assay 1: Bub1 kinase assay median IC50

Row | SMILES | IC50 (HeLa cell line; HeLa cells, incubated for 4 days with test substance, crystal violet staining, median value) [nM] | IC50 [1] [nM] | IC50 (HeLa cell line; HeLa) [nM] | IC50 [1, 2] [nM]
1 | CCOc1cc(F)c(Cn2nc(-c3ncc(OC)c(Nc4ccc(F)cc4C(N)=O)n3)c3ccccc32)c(F)c1 [Example 2-12-4, 2-({2-[1-(4-ethoxy-2,6-difluorobenzyl)-1H-indazol-3-yl]-5-methoxypyrimidin-4-yl}amino)-5-fluorobenzamide] | – | – | 2400 | 110
2 | CCOc1cc(F)c(Cn2nc(-c3cc(Nc4cn[nH]c4)ccn3)c3ccccc32)c(F)c1 [Example 2-7-1, 2-[1-(4-ethoxy-2,6-difluorobenzyl)-1H-indazol-3-yl]-N-(1H-pyrazol-4-yl)pyridin-4-amine] | – | – | 2400 | 17
3 | CCOc1cc(F)c(Cn2nc(-c3ncc(OC)c(Nc4cncc(C(=O)NC)n4)n3)c3ccccc32)c(F)c1 [Example 2-2-6, 6-({2-[1-(4-ethoxy-2,6-difluorobenzyl)-1H-indazol-3-yl]-5-methoxypyrimidin-4-yl}amino)-N-methylpyrazine-2-carboxamide] | – | – | > 10000 | 660
4 | COc1ccc(Cn2nc(-c3ncc(OC)c(Nc4cn[nH]c4)n3)c3ccccc32)cc1 [Example 2-10-1, 5-methoxy-2-[1-(4-methoxybenzyl)-1H-indazol-3-yl]-N-(1H-pyrazol-4-yl)pyrimidin-4-amine] | – | 20 | 3400 | –

Next, values leading:

Row | IC50 (HeLa cell line; HeLa cells, incubated for 4 days with test substance, crystal violet staining, median value) [nM] | IC50 [1] [nM] | IC50 (HeLa cell line; HeLa) [nM] | IC50 [1, 2] [nM] | SMILES
5 | 6900 | 28 | – | – | CCCc1ccc(Cn2nc(-c3cc(Nc4ccncn4)ccn3)c3ccccc32)cc1 [Example 2-6-3, N-{2-[1-(4-propylbenzyl)-1H-indazol-3-yl]pyridin-4-yl}pyrimidin-4-amine]
6 | – | – | > 10000 | 720 | CCOc1cc(F)c(Cn2nc(-c3cc(Nc4cnsc4)ccn3)c3ccccc32)c(F)c1 [Example 2-5-3, 2-[1-(4-ethoxy-2,6-difluorobenzyl)-1H-indazol-3-yl]-N-(1,2-thiazol-4-yl)pyridin-4-amine]

From patent US20160046610A1, “3-HETEROARYL SUBSTITUTED INDAZOLES” (BAYER PHARMA AKTIENGESELLSCHAFT, priority 2013, published 2016)
